Legend:
in vitro = in vitro ADME; conditions: rat, lung cytosol
Method: To determine that the compounds of the invention can be stable during the incubation period, the test compounds A, B, C, and D were investigated for their stabilities at the incubation conditions, which are room temperature and 2 hours, for receptor binding studies. The frozen cytosol which was made for the receptor binding study was thawed in a water bath and diluted with 1 part of incubation buffer (10 mM Tris/HCl, 10 mM sodium molybdate, and 2 mM 1,4-dithiothreitol) containing a 15 mM concentration of enzyme inhibitor, diisopropyl fluorophosphate. Portions (560 μL) of the diluted cytosol were added to centrifuge tubes containing 80 μL portions of blank incubation buffer instead of volume of tracer ([^3 H]triamcinolone acetonide) which would be used in the receptor binding study (RBS), 80 μL of solution of a Δ^1 -cortienic acid (0.1 mM) in buffer (the final concentration of Δ^1 -cortienic acid in the incubation medium was […]), and 80 μL of 100,000 nM of concentrations of test compounds in ethanol to give a final concentration of 10,000 nM. This mixture was kept at room temperature for 2 hours. Samples of 0.1 mL were taken at appropriate time intervals (0, 0.5, 1, 1.5, 2 hours) and were mixed with 0.2 mL of acetonitrile containing 5% DMSO. Each mixture was centrifuged and the supernatant were injected in the HPLC.
Male Sprague-Dawley rats, each weighing 150 to 200 g, were used 6 days after adrenalectomy. Rats were sacrificed by decapitation. Immediately after resection of the lungs, the tissue was frozen in ice. The cytosol was prepared using a slight modification of a previously described method (Dahlberg, 1984); After addition of 6 volumes of ice-cold incubation buffer (10 mM Tris/HCl, 10 mM sodium molybdate, and 2 mM 1,4-dithiothreitol), the tissue was homogenized with the Virtis 45 homogenizer at full speed, for 4 periods of 10 seconds with a 10-second cooling period between each step. The homogenate was centrifuged at 35,000 g for 1 hour at 4° C. in a Beckman ultracentrifuge L8-70M equipped with a T170 rotor. Portions (5 ml) of the cytosol were frozen in liquid nitrogen and stored at -80° C.

[1] = tested on: forearms of a human volunteer; assay: Further human vasoconstriction testing, Method 1; format: in vivo; note: key: 0: normal skin; 1: slight pallor of indistinct outline; 2: pallor with at least two corners outlined; 3: even pallor with a clear outline of the application sites; 4: very intense pallor
Summary of the method: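 Each mixture, 50 μL in ethanol, was loaded onto circular 8 mm patches. Once the ethanol had evaporated, the patches were placed on a human volunteer's forearms under a water-impervious film for 3 hr. After the patches were removed, vasoconstriction was scored at intervals from 0 (normal skin) to 4 (very intense pallor). The same individual received all tests, run 2-4 times per compound.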

[2] = target: T1, rat lung glucocorticoid receptor (Rattus norvegicus, UniProt P06536); assay: Receptor binding studies ([3H]triamcinolone acetonide displacement); design: Receptor binding affinity: scale not given here; conditions: for RBA: further receptor binding studies (Table X), dexamethasone = 100, * mean ± SE of 3-5 results; for IC50: rat lung cytosol, 10 nM [3H]triamcinolone acetonide, 2 h, 24° C., read-out: IC50; for IC50 / Relative binding affinity (RBA): with Δ1-cortienic acid; for Relative binding affinity (RBA): with respect to dexamethasone (RBA = 100)
T1 construct: Immediately after resection of the lungs, the tissue was frozen in ice; The cytosol was prepared; from tissue; host or cells: lung cytosol of adrenalectomized male Sprague-Dawley rats
T1 sequence (P06536 1-795): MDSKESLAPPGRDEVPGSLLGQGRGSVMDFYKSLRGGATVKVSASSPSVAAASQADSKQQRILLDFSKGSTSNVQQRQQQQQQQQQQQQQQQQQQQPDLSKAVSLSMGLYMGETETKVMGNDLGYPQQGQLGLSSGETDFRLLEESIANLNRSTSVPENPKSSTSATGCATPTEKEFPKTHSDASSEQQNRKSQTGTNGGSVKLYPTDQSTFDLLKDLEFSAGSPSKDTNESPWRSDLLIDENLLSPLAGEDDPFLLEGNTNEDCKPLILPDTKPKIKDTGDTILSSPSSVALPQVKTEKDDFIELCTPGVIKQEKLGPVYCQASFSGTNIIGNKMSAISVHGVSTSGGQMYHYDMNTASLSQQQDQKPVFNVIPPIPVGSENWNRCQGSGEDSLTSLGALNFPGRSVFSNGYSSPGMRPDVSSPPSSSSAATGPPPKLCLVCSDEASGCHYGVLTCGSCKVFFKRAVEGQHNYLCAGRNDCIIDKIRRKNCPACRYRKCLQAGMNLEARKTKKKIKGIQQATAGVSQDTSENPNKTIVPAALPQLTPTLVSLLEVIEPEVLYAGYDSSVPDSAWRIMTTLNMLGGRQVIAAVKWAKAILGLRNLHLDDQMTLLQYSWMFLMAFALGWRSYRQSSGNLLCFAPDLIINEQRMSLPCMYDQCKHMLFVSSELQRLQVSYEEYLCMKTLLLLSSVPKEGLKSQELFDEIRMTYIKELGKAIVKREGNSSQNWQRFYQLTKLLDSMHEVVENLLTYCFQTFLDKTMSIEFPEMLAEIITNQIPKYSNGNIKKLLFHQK
Method: Male Sprague-Dawley rats, each weighing 150 to 200 g, were used 6 days after adrenalectomy. Rats were sacrificed by decapitation. Immediately after resection of the lungs, the tissue was frozen in ice. […] Portions (5 ml) of the cytosol were frozen in liquid nitrogen and stored at -80° C.
The cytosol was thawed in a water bath and diluted with 1 part of incubation buffer containing a 15 mM concentration of diisopropyl fluorophosphate. […] After a 2 hour incubation period at room temperature (24° C.), the unbound steroid was removed by addition of a 2% suspension of activated charcoal in incubation buffer (400 μL). The mixture was incubated for 5 minutes at room temperature and then was centrifuged at about 10,000 g for 3 minutes in the microcentrifuge. The radioactivity (cpm) in the supernatant (400 μL) was determined by liquid scintillation counting.
The data is fitted to the following logistic function:
B=T-T * C^N /(C^N +IC50^N)+NS,
where B=CPM in the presence of competitor, T=CPM in the absence of competitor, C=competitor concentration, N=Hill slope factor, and NS=cpm under non-specific binding conditions.
For the representative compound of the invention B, receptor binding affinity was investigated with and without Δ^1 -cortienic acid in the incubation solution to study the effect of Δ^1 -cortienic acid on the receptor binding.
Further studies to evaluate the relative receptor binding affinities of compounds of the invention, other compounds of formula (VII) hereinabove and well-known anti-inflammatory steroids were undertaken, using the methods described in the RECEPTOR BINDING STUDIES set forth above. […] For comparison purposes, the following compounds having formula (VII) above were also tested: […]

[3] = 24 Hours, 1 hour re-occlusion at 20-21 hours, 0.01 mM
[4] = 24 Hours, 1 hour re-occlusion at 20-21 hours, 0.05 mM
[5] = 24 Hours, 1 hour re-occlusion at 20-21 hours, 0.1 mM
[6] = 24 Hours, 1 hour re-occlusion at 20-21 hours, 0.5 mM

COC(=O)[C@@]1(OC(=O)C(Cl)Cl)CC[C@H]2[C@@H]3CCC4=CC(=O)C=C[C@]4(C)[C@H]3[C@@H](O)C[C@@]21C [Compound A, Methyl 17α-dichloroacetoxy-11β-hydroxyandrosta-1,4-dien-3-one-17β-carboxylate]
remaining at 2 h (in vitro): 75%
remaining at 2 h, 10 µM (in vitro): 75.1%
Vasoconstriction activity ([1]; 3 Hours, 10 mM): 4
Vasoconstriction activity ([1]; 20 Hours, 10 mM): 2
RBA [2]: 165
IC50 [2]: 0.0495 µM
Relative binding affinity (RBA) [2]: 165

CCOC(=O)[C@@]1(OC(=O)C(Cl)Cl)CC[C@H]2[C@@H]3CCC4=CC(=O)C=C[C@]4(C)[C@H]3[C@@H](O)C[C@@]21C [Compound B, Ethyl 17α-dichloroacetoxy-11β-hydroxyandrosta-1,4-dien-3-one-17β-carboxylate]
remaining at 2 h (in vitro): 75%
remaining at 2 h, 10 µM (in vitro): 100%
Vasoconstriction activity ([1]; 3 Hours, 0.01 mM): 0
Vasoconstriction activity ([1]; 3 Hours, 0.05 mM): 1
Vasoconstriction activity ([1]; 3 Hours, 0.1 mM): 1
Vasoconstriction activity ([1]; 3 Hours, 0.5 mM): 2
Vasoconstriction activity ([1]; 3 Hours, 1 mM): 3
Vasoconstriction activity ([1]; 3 Hours, 5 mM): 3
Vasoconstriction activity ([1]; 3 Hours, 10 mM): 4
Vasoconstriction activity ([1]; 20 Hours, 0.01 mM): 0
Vasoconstriction activity ([1]; 20 Hours, 0.05 mM): 0
Vasoconstriction activity ([1]; 20 Hours, 0.1 mM): 1
Vasoconstriction activity ([1]; 20 Hours, 0.5 mM): 1
Vasoconstriction activity ([1]; 20 Hours, 1 mM): 1
Vasoconstriction activity ([1]; 20 Hours, 5 mM): 1
Vasoconstriction activity ([1]; 20 Hours, 10 mM): 2
Vasoconstriction activity [1, 3]: 1
Vasoconstriction activity [1, 4]: 1
Vasoconstriction activity [1, 5]: 2
Vasoconstriction activity [1, 6]: 2
Receptor binding affinity ([2]; With Δ1-cortienic acid (Table IX)): 204
Receptor binding affinity ([2]; Without Δ1-cortienic acid (Table IX)): 181
RBA [2]: 222 ± 16
IC50 [2]: 0.0401 µM
Relative binding affinity (RBA) [2]: 204

C[C@]12C=CC(=O)C=C1CC[C@@H]1[C@@H]2[C@@H](O)C[C@@]2(C)[C@H]1CC[C@]2(OC(=O)C(Cl)Cl)C(=O)OCCl [Compound D, Chloromethyl 17α-dichloroacetoxy-11β-hydroxyandrosta-1,4-dien-3-one-17β-carboxylate]
remaining at 2 h (in vitro): 70%
remaining at 2 h, 10 µM (in vitro): 70.6%
Vasoconstriction activity ([1]; 3 Hours, 10 mM): 4
Vasoconstriction activity ([1]; 20 Hours, 10 mM): 1
RBA [2]: 684
IC50 [2]: 0.0119 µM
Relative binding affinity (RBA) [2]: 684

COC(=O)[C@@]1(OC(=O)C(Cl)Cl)[C@H](C)C[C@H]2[C@@H]3CCC4=CC(=O)C=C[C@]4(C)[C@@]3(F)[C@@H](O)C[C@@]21C [Compound I, methyl 17α-dichloroacetoxy-9α-fluoro-11β-hydroxy-16α-methylandrosta-1,4-dien-3-one-17β-carboxylate]
remaining at 2 h (in vitro): > 90%
Vasoconstriction activity ([1]; 3 Hours, 0.01 mM): 1
Vasoconstriction activity ([1]; 3 Hours, 0.05 mM): 2
Vasoconstriction activity ([1]; 3 Hours, 0.1 mM): 2
Vasoconstriction activity ([1]; 3 Hours, 0.5 mM): 3
Vasoconstriction activity ([1]; 3 Hours, 1 mM): 4
Vasoconstriction activity ([1]; 3 Hours, 5 mM): 4
Vasoconstriction activity ([1]; 3 Hours, 10 mM): 4
Vasoconstriction activity ([1]; 20 Hours, 0.01 mM): 0
Vasoconstriction activity ([1]; 20 Hours, 0.05 mM): 1
Vasoconstriction activity ([1]; 20 Hours, 0.1 mM): 1
Vasoconstriction activity ([1]; 20 Hours, 0.5 mM): 1
Vasoconstriction activity ([1]; 20 Hours, 1 mM): 1
Vasoconstriction activity ([1]; 20 Hours, 5 mM): 2
Vasoconstriction activity [1, 3]: 1
Vasoconstriction activity [1, 4]: 2
Vasoconstriction activity [1, 5]: 3
Vasoconstriction activity [1, 6]: 3
RBA [2]: 1745 ± 185
Relative binding affinity (RBA) [2]: 495

CCOC(=O)[C@@]1(OC(=O)C(Cl)Cl)[C@H](C)C[C@H]2[C@@H]3CCC4=CC(=O)C=C[C@]4(C)[C@@]3(F)[C@@H](O)C[C@@]21C [J, ethyl 17α-dichloroacetoxy-9α-fluoro-11β-hydroxy-16α-methylandrosta-1,4-dien-3-one-17β-carboxylate]
remaining at 2 h (in vitro): > 90%
Vasoconstriction activity ([1]; 3 Hours, 0.01 mM): 0
Vasoconstriction activity ([1]; 3 Hours, 0.05 mM): 1
Vasoconstriction activity ([1]; 3 Hours, 0.1 mM): 2
Vasoconstriction activity ([1]; 3 Hours, 0.5 mM): 2
Vasoconstriction activity ([1]; 3 Hours, 1 mM): 3
Vasoconstriction activity ([1]; 3 Hours, 5 mM): 3
Vasoconstriction activity ([1]; 3 Hours, 10 mM): 4
Vasoconstriction activity ([1]; 20 Hours, 0.01 mM): 0
Vasoconstriction activity ([1]; 20 Hours, 0.05 mM): 0
Vasoconstriction activity ([1]; 20 Hours, 0.1 mM): 0
Vasoconstriction activity ([1]; 20 Hours, 0.5 mM): 1
Vasoconstriction activity ([1]; 20 Hours, 1 mM): 1
Vasoconstriction activity ([1]; 20 Hours, 5 mM): 1
Vasoconstriction activity ([1]; 20 Hours, 10 mM): 2
Vasoconstriction activity [1, 3]: 1
Vasoconstriction activity [1, 4]: 1
Vasoconstriction activity [1, 5]: 2
Vasoconstriction activity [1, 6]: 2
RBA [2]: 687 ± 49

CC(C)OC(=O)[C@@]1(OC(=O)C(Cl)Cl)CC[C@H]2[C@@H]3CCC4=CC(=O)C=C[C@]4(C)[C@H]3[C@@H](O)C[C@@]21C [Compound C, Isopropyl 17α-dichloroacetoxy-11β-hydroxyandrosta-1,4-dien-3-one-17β-carboxylate]
remaining at 2 h (in vitro): > 90%
remaining at 2 h, 10 µM (in vitro): 100%
Vasoconstriction activity ([1]; 3 Hours, 10 mM): 4
Vasoconstriction activity ([1]; 20 Hours, 10 mM): 1
RBA [2]: 117
IC50 [2]: 0.0698 µM
Relative binding affinity (RBA) [2]: 117

CCCCC(=O)O[C@]1(C(=O)CO)[C@@H](C)C[C@H]2[C@@H]3CCC4=CC(=O)C=C[C@]4(C)[C@@]3(F)[C@@H](O)C[C@@]21C [Betamethasone 17-valerate, reference compound]
Vasoconstriction activity ([1]; 3 Hours, 0.01 mM): 0
Vasoconstriction activity ([1]; 3 Hours, 0.05 mM): 1
Vasoconstriction activity ([1]; 3 Hours, 0.1 mM): 1
Vasoconstriction activity ([1]; 3 Hours, 0.5 mM): 2
Vasoconstriction activity ([1]; 3 Hours, 1 mM): 3
Vasoconstriction activity ([1]; 3 Hours, 5 mM): 3
Vasoconstriction activity ([1]; 3 Hours, 10 mM): 4
Vasoconstriction activity ([1]; 20 Hours, 0.01 mM): 0
Vasoconstriction activity ([1]; 20 Hours, 0.05 mM): 1
Vasoconstriction activity ([1]; 20 Hours, 0.1 mM): 1
Vasoconstriction activity ([1]; 20 Hours, 0.5 mM): 1
Vasoconstriction activity ([1]; 20 Hours, 1 mM): 1
Vasoconstriction activity ([1]; 20 Hours, 5 mM): 1
Vasoconstriction activity ([1]; 20 Hours, 10 mM): 2
Vasoconstriction activity [1, 3]: 1
Vasoconstriction activity [1, 4]: 1
Vasoconstriction activity [1, 5]: 2
Vasoconstriction activity [1, 6]: 2
RBA [2]: 1742 ± 130

Reference: patent US5981517A, “Androstene derivatives” (priority 1997, dated 1999)
